From the NIST ThermoML archive (doi:10.1021/je200825j)

Details: Liquid mixture 1, Drop weight

CCCCCCCCCC [decane] + O
Details | interfacial tension [mN/m]
297.85 K, 110 kPa | 51.96
323.35 K, 180 kPa | 47.78
323.35 K, 22250 kPa | 48.88
323.35 K, 39800 kPa | 49.11
343.45 K, 150 kPa | 46.28
343.45 K, 22850 kPa | 47.68
343.45 K, 49020 kPa | 48.39
374.25 K, 200 kPa | 42.87
374.25 K, 23000 kPa | 44.13
374.25 K, 47150 kPa | 45.21
403.05 K, 400 kPa | 39.59
403.05 K, 24500 kPa | 40.33
403.05 K, 48000 kPa | 40.9
442.85 K, 1150 kPa | 32.36
442.85 K, 46400 kPa | 36.89
